Assay results reported in ChEMBL document CHEMBL2375290, “Nonclassical antifolates, part 3: synthesis, biological evaluation and molecular modeling study of some new 2-heteroarylthio-quinazolin-4-ones” (Eur J Med Chem, 2013).

Legend:
NCI-H23 = assay: Cytotoxicity against human NCI-H23 cells at 10 uM after 48 hrs by coulter counter analysis; assay type: functional; details: NCI-H23, 48 h, read-out: GI
SF-295 = assay: Cytotoxicity against human SF295 cells at 10 uM after 48 hrs by coulter counter analysis; assay type: functional; details: SF-295, 48 h, read-out: GI
SNB-75 = assay: Cytotoxicity against human SNB75 cells at 10 uM after 48 hrs by coulter counter analysis; assay type: functional; details: SNB-75, 48 h, read-out: GI
SN12C = assay: Cytotoxicity against human SN12C cells at 10 uM after 48 hrs by coulter counter analysis; assay type: functional; details: read-out: GI
Micrococcus luteus = assay: Antimicrobial activity against Micrococcus luteus at 200 ug after 24 hrs by agar disc diffusion method; assay type: functional; details: read-out: DIZ
RPMI-8226 = assay: Cytotoxicity against human RPMI8226 cells at 10 uM after 48 hrs by coulter counter analysis; assay type: functional; details: RPMI-8226, 48 h, read-out: GI
LOX IMVI = assay: Cytotoxicity against human LOXIMVI cells at 10 uM after 48 hrs by coulter counter analysis; assay type: functional; details: read-out: GI
CAKI-1 = assay: Cytotoxicity against human Caki1 cells at 10 uM after 48 hrs by coulter counter analysis; assay type: functional; details: CAKI-1, 48 h, read-out: GI
Malme-3M = assay: Cytotoxicity against human MALME-3M cells at 10 uM after 48 hrs by coulter counter analysis; assay type: functional; details: read-out: GI
Dihydrofolate reductase = target: T1, Dihydrofolate reductase (Bos taurus, UniProt P00376); assay: Inhibition of bovine DHFR after 2 mins by spectrophotometry
T1 sequence (P00376 whole entry): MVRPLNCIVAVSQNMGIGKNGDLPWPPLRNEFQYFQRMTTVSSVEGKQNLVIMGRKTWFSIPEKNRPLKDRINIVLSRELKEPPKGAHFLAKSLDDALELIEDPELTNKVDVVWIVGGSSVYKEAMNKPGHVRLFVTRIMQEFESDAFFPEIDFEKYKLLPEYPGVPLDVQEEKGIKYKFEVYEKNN

MOLT-4 = assay: Cytotoxicity against human MOLT4 cells at 10 uM after 48 hrs by coulter counter analysis; assay type: functional; details: MOLT-4, 48 h, read-out: GI
MDA-MB-435 = assay: Cytotoxicity against human MDA-MB-435 cells at 10 uM after 48 hrs by coulter counter analysis; assay type: functional; details: MDA-MB-435, 48 h, read-out: GI
MDA-MB-231 = assay: Cytotoxicity against human MDA-MB-231 cells at 10 uM after 48 hrs by coulter counter analysis; assay type: functional; details: MDA-MB-231, 48 h, read-out: GI
SR = assay: Cytotoxicity against human SR cells at 10 uM after 48 hrs by coulter counter analysis; assay type: functional; details: read-out: GI
A549 = assay: Cytotoxicity against human A549/ATCC cells at 10 uM after 48 hrs by coulter counter analysis; assay type: functional; details: A549, 48 h, read-out: GI
A498 = assay: Cytotoxicity against human A498 cells at 10 uM after 48 hrs by coulter counter analysis; assay type: functional; details: A498, 48 h, read-out: GI
CCRF-CEM = assay: Cytotoxicity against human CCRF-CEM cells at 10 uM after 48 hrs by coulter counter analysis; assay type: functional; details: read-out: GI
PC-3 = assay: Cytotoxicity against human PC3 cells at 10 uM after 48 hrs by coulter counter analysis; assay type: functional; details: PC-3, 48 h, read-out: GI
MCF7 = assay: Cytotoxicity against human MCF7 cells at 10 uM after 48 hrs by coulter counter analysis; assay type: functional; details: MCF7, 48 h, read-out: GI
HL-60(TB) = assay: Cytotoxicity against human HL-60(TB) cells at 10 uM after 48 hrs by coulter counter analysis; assay type: functional; details: HL-60, 48 h, read-out: GI
[1] = Cytotoxicity against human NCI-ADR-RES cells at 10 uM after 48 hrs by coulter counter analysis; assay type: functional; details: read-out: GI
SNB-19 = assay: Cytotoxicity against human SNB19 cells at 10 uM after 48 hrs by coulter counter analysis; assay type: functional; details: SNB-19, 48 h, read-out: GI
Bacillus subtilis = assay: Antimicrobial activity against Bacillus subtilis at 200 ug after 24 hrs by agar disc diffusion method; assay type: functional; details: read-out: DIZ
NCI-H226 = assay: Cytotoxicity against human NCI-H226 cells at 10 uM after 48 hrs by coulter counter analysis; assay type: functional; details: NCI-H226, 48 h, read-out: GI
Pseudomonas aeruginosa = assay: Antimicrobial activity against Pseudomonas aeruginosa at 200 ug after 24 hrs by agar disc diffusion method; assay type: functional; details: read-out: DIZ
Staphylococcus aureus = assay: Antimicrobial activity against Staphylococcus aureus at 200 ug after 24 hrs by agar disc diffusion method; assay type: functional; details: read-out: DIZ
IGROV-1 = assay: Cytotoxicity against human IGROV1 cells at 10 uM after 48 hrs by coulter counter analysis; assay type: functional; details: IGROV-1, 48 h, read-out: GI
RXF 393 = assay: Cytotoxicity against human RXF393 cells at 10 uM after 48 hrs by coulter counter analysis; assay type: functional; details: RXF 393, 48 h, read-out: GI
SK-MEL-5 = assay: Cytotoxicity against human SK-MEL-5 cells at 10 uM after 48 hrs by coulter counter analysis; assay type: functional; details: SK-MEL-5, 48 h, read-out: GI
UO-31 = assay: Cytotoxicity against human UO31 cells at 10 uM after 48 hrs by coulter counter analysis; assay type: functional; details: UO-31, 48 h, read-out: GI
Escherichia coli = assay: Antimicrobial activity against Escherichia coli at 200 ug after 24 hrs by agar disc diffusion method; assay type: functional; details: read-out: DIZ
OVCAR-4 = assay: Cytotoxicity against human OVCAR4 cells at 10 uM after 48 hrs by coulter counter analysis; assay type: functional; details: OVCAR-4, 48 h, read-out: GI
NCI-H522 = assay: Cytotoxicity against human NCI-H522 cells at 10 uM after 48 hrs by coulter counter analysis; assay type: functional; details: NCI-H522, 48 h, read-out: GI
Hs-578T = assay: Cytotoxicity against human Hs578T cells at 10 uM after 48 hrs by coulter counter analysis; assay type: functional; details: read-out: GI
UACC-62 = assay: Cytotoxicity against human UACC62 cells at 10 uM after 48 hrs by coulter counter analysis; assay type: functional; details: UACC-62, 48 h, read-out: GI
[2] = Cytotoxicity against human EKVX cells at 10 uM after 48 hrs by coulter counter analysis; assay type: functional; details: read-out: GI
T47D = assay: Cytotoxicity against human T47D cells at 10 uM after 48 hrs by coulter counter analysis; assay type: functional; details: read-out: GI

Structure (SMILES) | inhibition of growth at 10 µM (NCI-H23) | inhibition of growth at 10 µM (SF-295) | inhibition of growth at 10 µM (SNB-75) | inhibition of growth at 10 µM (SN12C) | zone of inhibition at 200 µg/disc (Micrococcus luteus) | inhibition of growth at 10 µM (RPMI-8226) | inhibition of growth at 10 µM (LOX IMVI) | inhibition of growth at 10 µM (CAKI-1) | inhibition of growth at 10 µM (Malme-3M) | IC50 (Dihydrofolate reductase) | inhibition of growth at 10 µM (MOLT-4) | inhibition of growth at 10 µM (MDA-MB-435) | inhibition of growth at 10 µM (MDA-MB-231) | inhibition of growth at 10 µM (SR) | inhibition of growth at 10 µM (A549) | inhibition of growth at 10 µM (A498) | zone of inhibition at 200 µg/disc (Bacillus subtilis) | zone of inhibition at 200 µg/disc (Pseudomonas aeruginosa) | zone of inhibition at 200 µg/disc (Staphylococcus aureus) | zone of inhibition at 200 µg/disc (Escherichia coli) | also measured
COc1cc2nc(Sc3cnc(N)s3)n(Cc3ccccc3)c(=O)c2cc1OC | < 10% | < 10% | 13.3% | < 10% | 8 mm | 15.9% | 10.8% | 25.4% | < 10% | 3 µM | < 10% | < 10% | 19.1% | < 10% | < 10% | < 10% | 18 mm | 8 mm | 17 mm | 16 mm | inhibition of growth at 10 µM (CCRF-CEM): 22.8%; inhibition of growth at 10 µM (PC-3): 22.4%; inhibition of growth at 10 µM (MCF7): < 10%; inhibition of growth at 10 µM (HL-60(TB)): < 10%; inhibition of growth at 10 µM [1]: < 10%; inhibition of growth at 10 µM (SNB-19): < 10%; inhibition of growth at 10 µM (NCI-H226): 10.4%; inhibition of growth at 10 µM (IGROV-1): < 10%; inhibition of growth at 10 µM (RXF 393): < 10%; inhibition of growth at 10 µM (SK-MEL-5): 12.9%; inhibition of growth at 10 µM (UO-31): 17.4%; inhibition of growth at 10 µM (OVCAR-4): < 10%; inhibition of growth at 10 µM (NCI-H522): 19.8%; inhibition of growth at 10 µM (Hs-578T): < 10%; inhibition of growth at 10 µM (UACC-62): < 10%; inhibition of growth at 10 µM [2]: 16.1%; inhibition of growth at 10 µM (T47D): < 10%
Cc1ccc2nc(Sc3cc([N+](=O)[O-])ccc3C(=O)O)n(-c3ccccc3)c(=O)c2c1 | – | – | – | – | 8 mm | – | – | – | – | 10 µM | – | – | – | – | – | – | 8 mm | 8 mm | 8 mm | 8 mm | –
Cc1ccc2nc(Sc3cc([N+](=O)[O-])ccc3C(=O)O)n(Cc3ccccc3)c(=O)c2c1 | – | – | – | – | 8 mm | – | – | – | – | 12 µM | – | – | – | – | – | – | 8 mm | 8 mm | 8 mm | 8 mm | –
Nc1ncc(Sc2nc3ccc(Cl)cc3c(=O)n2Cc2ccccc2)s1 | < 10% | 16.6% | 10.7% | < 10% | 8 mm | 18.9% | 14.9% | 25.6% | 10.8% | 2 µM | 16.8% | < 10% | 11.2% | < 10% | < 10% | 11.2% | 18 mm | 8 mm | 16 mm | 15 mm | inhibition of growth at 10 µM (CCRF-CEM): 13.7%; inhibition of growth at 10 µM (PC-3): 28.2%; inhibition of growth at 10 µM (MCF7): < 10%; inhibition of growth at 10 µM (HL-60(TB)): < 10%; inhibition of growth at 10 µM [1]: < 10%; inhibition of growth at 10 µM (SNB-19): < 10%; inhibition of growth at 10 µM (NCI-H226): 17.1%; inhibition of growth at 10 µM (IGROV-1): 12%; inhibition of growth at 10 µM (RXF 393): < 10%; inhibition of growth at 10 µM (SK-MEL-5): < 10%; inhibition of growth at 10 µM (UO-31): 14.8%; inhibition of growth at 10 µM (OVCAR-4): 13.8%; inhibition of growth at 10 µM (NCI-H522): 16%; inhibition of growth at 10 µM (Hs-578T): < 10%; inhibition of growth at 10 µM (UACC-62): 14.4%; inhibition of growth at 10 µM [2]: 11.9%; inhibition of growth at 10 µM (T47D): 10.4%
COc1cc2nc(Sc3cc([N+](=O)[O-])ccc3C(=O)O)n(Cc3ccccc3)c(=O)c2cc1OC | – | – | – | – | 8 mm | – | – | – | – | 3 µM | – | – | – | – | – | – | 8 mm | 8 mm | 18 mm | 8 mm | –
O=C(O)c1ccc([N+](=O)[O-])cc1Sc1nc2ccc(Cl)cc2c(=O)n1Cc1ccccc1 | – | – | – | – | 8 mm | – | – | – | – | 8 µM | – | – | – | – | – | – | 15 mm | 8 mm | 8 mm | 8 mm | –
